# Measurements taken from ChEMBL document CHEMBL1147785, “Novel peptidomimetic cysteine protease inhibitors as potential antimalarial agents” (J Med Chem, 2006).
# The source made the active and inactive calls. The rule behind the calls is not given here. Residues, ends and D or L forms follow the SMILES beside them. *: point of attachment. Cbz = O=C(OCc1ccccc1)*
# Target: T1, Caspase-2 (Homo sapiens) (UniProt P42575)
# T1 sequence (whole entry): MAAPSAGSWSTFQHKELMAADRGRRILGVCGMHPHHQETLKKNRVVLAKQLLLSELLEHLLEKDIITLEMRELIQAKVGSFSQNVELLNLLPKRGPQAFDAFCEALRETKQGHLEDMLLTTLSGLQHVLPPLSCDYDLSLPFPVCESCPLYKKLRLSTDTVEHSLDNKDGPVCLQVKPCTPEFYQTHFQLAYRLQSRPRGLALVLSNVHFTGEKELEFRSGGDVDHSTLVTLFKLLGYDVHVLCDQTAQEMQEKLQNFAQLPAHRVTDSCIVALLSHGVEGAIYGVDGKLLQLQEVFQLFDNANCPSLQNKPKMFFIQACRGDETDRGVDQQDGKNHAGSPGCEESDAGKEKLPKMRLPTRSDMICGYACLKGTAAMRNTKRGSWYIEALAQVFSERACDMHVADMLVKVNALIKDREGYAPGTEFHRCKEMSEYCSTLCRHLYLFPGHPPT
# Experiment: Inhibition of human recombinant caspase2 upto 50 uM
row,Compound,Activity
1,O=C(CN1C(=O)[C@@H](COC(=O)Nc2cccc3ccccc23)N=C(c2ccccc2)c2ccccc21)N[C@H]1CC(=O)OC1O (stereo partly drawn),inactive
2,CC(C)[C@H](NC(=O)OCc1ccccc1)C(=O)N[C@H](C=O)Cc1ccccc1 (Cbz-Val-Phe-aldehyde),inactive
3,O=C(CN1C(=O)[C@@H](COC(=O)Nc2ccc(Cl)cc2)N=C(c2ccccc2)c2ccccc21)N[C@H]1CC(=O)OC1O (stereo partly drawn),inactive
4,O=C(CN1C(=O)[C@@H](COC(=O)Nc2ccc(F)cc2)N=C(c2ccccc2)c2ccccc21)N[C@H]1CC(=O)OC1O (stereo partly drawn),inactive
5,O=C(CN1C(=O)[C@@H](COC(=O)Nc2ccccc2)N=C(c2ccccc2)c2ccccc21)N[C@H]1CC(=O)OC1O (stereo partly drawn),inactive
6,COc1ccc(NC(=O)OC[C@H]2N=C(c3ccccc3)c3ccccc3N(CC(=O)N[C@H]3CC(=O)OC3O)C2=O)cc1 (stereo partly drawn),inactive
7,O=C(CN1C(=O)[C@@H](COC(=O)Nc2ccc(F)cc2F)N=C(c2ccccc2)c2ccccc21)N[C@H]1CC(=O)OC1O (stereo partly drawn),inactive
8,Cc1cc(Cl)ccc1NC(=O)OC[C@H]1N=C(c2ccccc2)c2ccccc2N(CC(=O)N[C@H]2CC(=O)OC2O)C1=O (stereo partly drawn),inactive
9,O=C(CN1C(=O)[C@@H](COC(=O)Nc2ccc(Cl)cc2C(F)(F)F)N=C(c2ccccc2)c2ccccc21)N[C@H]1CC(=O)OC1O (stereo partly drawn),inactive
10,O=C(CN1C(=O)[C@H](COC(=O)Nc2ccc(Cl)cc2C(F)(F)F)N=C(c2ccccc2)c2ccccc21)N[C@H]1CC(=O)OC1O (stereo partly drawn),inactive
11,O=C(CN1C(=O)[C@@H](COC(=O)Nc2c(F)cc(F)cc2Br)N=C(c2ccccc2)c2ccccc21)N[C@H]1CC(=O)OC1O (stereo partly drawn),inactive

# Target: T2, Caspase-3 (Homo sapiens) (UniProt P42574)
# T2 sequence (whole entry): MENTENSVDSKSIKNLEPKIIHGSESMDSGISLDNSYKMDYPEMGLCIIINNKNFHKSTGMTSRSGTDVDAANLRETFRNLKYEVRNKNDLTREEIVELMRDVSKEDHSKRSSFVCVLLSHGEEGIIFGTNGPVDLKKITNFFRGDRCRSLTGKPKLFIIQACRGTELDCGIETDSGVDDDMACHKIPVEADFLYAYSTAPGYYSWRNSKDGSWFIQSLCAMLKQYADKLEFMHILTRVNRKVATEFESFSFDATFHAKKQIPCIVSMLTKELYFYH
# Experiment: Inhibition of human recombinant caspase3 upto 50 uM
row,Compound,Activity
1,O=C(CN1C(=O)[C@@H](COC(=O)Nc2cccc3ccccc23)N=C(c2ccccc2)c2ccccc21)N[C@H]1CC(=O)OC1O (stereo partly drawn),inactive
2,CC(C)[C@H](NC(=O)OCc1ccccc1)C(=O)N[C@H](C=O)Cc1ccccc1 (Cbz-Val-Phe-aldehyde),inactive
3,O=C(CN1C(=O)[C@@H](COC(=O)Nc2ccc(Cl)cc2)N=C(c2ccccc2)c2ccccc21)N[C@H]1CC(=O)OC1O (stereo partly drawn),inactive
4,O=C(CN1C(=O)[C@@H](COC(=O)Nc2ccc(F)cc2)N=C(c2ccccc2)c2ccccc21)N[C@H]1CC(=O)OC1O (stereo partly drawn),inactive
5,O=C(CN1C(=O)[C@@H](COC(=O)Nc2ccccc2)N=C(c2ccccc2)c2ccccc21)N[C@H]1CC(=O)OC1O (stereo partly drawn),inactive
6,COc1ccc(NC(=O)OC[C@H]2N=C(c3ccccc3)c3ccccc3N(CC(=O)N[C@H]3CC(=O)OC3O)C2=O)cc1 (stereo partly drawn),inactive
7,O=C(CN1C(=O)[C@@H](COC(=O)Nc2ccc(F)cc2F)N=C(c2ccccc2)c2ccccc21)N[C@H]1CC(=O)OC1O (stereo partly drawn),inactive
8,Cc1cc(Cl)ccc1NC(=O)OC[C@H]1N=C(c2ccccc2)c2ccccc2N(CC(=O)N[C@H]2CC(=O)OC2O)C1=O (stereo partly drawn),inactive
9,O=C(CN1C(=O)[C@@H](COC(=O)Nc2ccc(Cl)cc2C(F)(F)F)N=C(c2ccccc2)c2ccccc21)N[C@H]1CC(=O)OC1O (stereo partly drawn),inactive
10,O=C(CN1C(=O)[C@H](COC(=O)Nc2ccc(Cl)cc2C(F)(F)F)N=C(c2ccccc2)c2ccccc21)N[C@H]1CC(=O)OC1O (stereo partly drawn),inactive
11,O=C(CN1C(=O)[C@@H](COC(=O)Nc2c(F)cc(F)cc2Br)N=C(c2ccccc2)c2ccccc21)N[C@H]1CC(=O)OC1O (stereo partly drawn),inactive

# Target: T3, Caspase-9 (Homo sapiens) (UniProt P55211)
# T3 sequence (whole entry): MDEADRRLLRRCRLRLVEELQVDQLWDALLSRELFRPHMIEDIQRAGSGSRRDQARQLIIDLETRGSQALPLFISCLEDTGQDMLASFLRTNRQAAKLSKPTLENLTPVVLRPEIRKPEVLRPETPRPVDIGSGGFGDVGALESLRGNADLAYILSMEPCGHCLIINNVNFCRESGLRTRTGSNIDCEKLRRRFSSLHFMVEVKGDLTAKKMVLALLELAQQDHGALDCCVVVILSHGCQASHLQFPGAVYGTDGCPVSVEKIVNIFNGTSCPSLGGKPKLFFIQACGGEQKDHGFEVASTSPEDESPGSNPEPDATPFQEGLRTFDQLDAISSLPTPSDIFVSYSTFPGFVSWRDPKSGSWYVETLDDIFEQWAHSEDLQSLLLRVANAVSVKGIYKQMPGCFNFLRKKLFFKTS
# Experiment: Inhibition of human recombinant caspase9 upto 50 uM
row,Compound,Activity
1,O=C(CN1C(=O)[C@@H](COC(=O)Nc2cccc3ccccc23)N=C(c2ccccc2)c2ccccc21)N[C@H]1CC(=O)OC1O (stereo partly drawn),inactive
2,CC(C)[C@H](NC(=O)OCc1ccccc1)C(=O)N[C@H](C=O)Cc1ccccc1 (Cbz-Val-Phe-aldehyde),inactive
3,O=C(CN1C(=O)[C@@H](COC(=O)Nc2ccc(Cl)cc2)N=C(c2ccccc2)c2ccccc21)N[C@H]1CC(=O)OC1O (stereo partly drawn),inactive
4,O=C(CN1C(=O)[C@@H](COC(=O)Nc2ccc(F)cc2)N=C(c2ccccc2)c2ccccc21)N[C@H]1CC(=O)OC1O (stereo partly drawn),inactive
5,O=C(CN1C(=O)[C@@H](COC(=O)Nc2ccccc2)N=C(c2ccccc2)c2ccccc21)N[C@H]1CC(=O)OC1O (stereo partly drawn),inactive
6,COc1ccc(NC(=O)OC[C@H]2N=C(c3ccccc3)c3ccccc3N(CC(=O)N[C@H]3CC(=O)OC3O)C2=O)cc1 (stereo partly drawn),inactive
7,O=C(CN1C(=O)[C@@H](COC(=O)Nc2ccc(F)cc2F)N=C(c2ccccc2)c2ccccc21)N[C@H]1CC(=O)OC1O (stereo partly drawn),inactive
8,Cc1cc(Cl)ccc1NC(=O)OC[C@H]1N=C(c2ccccc2)c2ccccc2N(CC(=O)N[C@H]2CC(=O)OC2O)C1=O (stereo partly drawn),inactive
9,O=C(CN1C(=O)[C@@H](COC(=O)Nc2ccc(Cl)cc2C(F)(F)F)N=C(c2ccccc2)c2ccccc21)N[C@H]1CC(=O)OC1O (stereo partly drawn),inactive
10,O=C(CN1C(=O)[C@H](COC(=O)Nc2ccc(Cl)cc2C(F)(F)F)N=C(c2ccccc2)c2ccccc21)N[C@H]1CC(=O)OC1O (stereo partly drawn),inactive
11,O=C(CN1C(=O)[C@@H](COC(=O)Nc2c(F)cc(F)cc2Br)N=C(c2ccccc2)c2ccccc21)N[C@H]1CC(=O)OC1O (stereo partly drawn),inactive
